This note sets out measurements from publication PMC5164969 (Bioorganic & medicinal chemistry, 2016).

Converted amounts (≈) assume the structure as drawn.

The nature of data set [1]: Mammalian cell cytotoxicity, summary over both cell lines. It counts as cell-based. Conditions: human, A549 cells and BEAS-2B cells.
Data set [2] concerns seven Candida albicans strains. Briefly: Antifungal MIC, summary over the panel of seven strains. It counts as cell-based. Conditions: most of the fungal strains tested / overall.
In the next data set the test system is E. coli MC1061. Put plainly: Antibacterial MIC. Conditions: Escherichia coli. It counts as cell-based.
The target in the next data set is hERG channel (Homo sapiens, UniProt Q12809). The format is binding. Conditions: class by IC50.
Data set [3] relates to P. aeruginosa ATCC 27853. Briefly: Antibacterial MIC. It counts as cell-based. Conditions: Pseudomonas aeruginosa, ATCC27853.
Another data set concerns B. subtilis 168. Briefly: Antibacterial MIC. The format is cell-based. Conditions: Bacillus subtilis.
Data set [4] concerns L. monocytogenes ATCC 19115. It counts as cell-based, Listeria monocytogenes. To be noted: strain B (Lmo), 15 serial passages.
Data set [5] deals with C. albicans ATCC 10231. Put plainly: Intracellular ROS production, DCFH-DA fluorescence assay. It counts as cell-based, Candida albicans. Conditions: 1 h at 35 °C, DCFH-DA staining.
Data set [6] has as its system vancomycin-resistant enterococcus (VRE). Put plainly: Antibacterial MIC. The format is cell-based.
Another data set deals with E. cloacae ATCC 13047. Briefly: Antibacterial MIC. The format is cell-based. To be noted: Enterobacter cloacae, ATCC13047.
The subject of data set [7] is P. aeruginosa ATCC 27853. The format is cell-based. To be noted: strain I (Pae); for development of resistance (passage after which resistance developed): 15 serial passages.
The subject of a further data set is K. pneumoniae ATCC 27736. Briefly: Antibacterial MIC. To be noted: Klebsiella pneumoniae, ATCC27736. The format is cell-based.
A further data set deals with MRSA. It counts as cell-based, Staphylococcus aureus. To be noted: strain C (MRSA), 15 serial passages.
Data set [8] relates to C. albicans ATCC 10231. It counts as cell-based, Candida albicans. Conditions: C. albicans ATCC 10231, repeated treatments with sub-MIC drug concentrations.
The test system of another data set is VRE. It counts as cell-based, enterococcus. Conditions: strain D (VRE), 15 serial passages.
The test system of data set [9] is L. monocytogenes ATCC 19115. Put plainly: Antibacterial MIC. It counts as cell-based. To be noted: Listeria monocytogenes, ATCC19115.
Data set [10] concerns methicillin-resistant Staphylococcus aureus (MRSA). Put plainly: Antibacterial MIC. It counts as cell-based.
In a further data set the test system is C. albicans ATCC 64124. Put plainly: Antifungal MIC. It counts as cell-based. To be noted: Candida albicans, ATCC64124.
The subject of another data set is C. albicans ATCC 90819. Put plainly: Antifungal MIC. It counts as cell-based. Conditions: Candida albicans, ATCC90819.
Data set [11] deals with panel of Gram-positive, Gram-negative and mycobacterial strains. Briefly: Antibacterial MIC, summary over the panel of bacterial strains. To be noted: all bacterial strains tested. The format is cell-based.

Chain of hERG channel (Q12809 whole entry): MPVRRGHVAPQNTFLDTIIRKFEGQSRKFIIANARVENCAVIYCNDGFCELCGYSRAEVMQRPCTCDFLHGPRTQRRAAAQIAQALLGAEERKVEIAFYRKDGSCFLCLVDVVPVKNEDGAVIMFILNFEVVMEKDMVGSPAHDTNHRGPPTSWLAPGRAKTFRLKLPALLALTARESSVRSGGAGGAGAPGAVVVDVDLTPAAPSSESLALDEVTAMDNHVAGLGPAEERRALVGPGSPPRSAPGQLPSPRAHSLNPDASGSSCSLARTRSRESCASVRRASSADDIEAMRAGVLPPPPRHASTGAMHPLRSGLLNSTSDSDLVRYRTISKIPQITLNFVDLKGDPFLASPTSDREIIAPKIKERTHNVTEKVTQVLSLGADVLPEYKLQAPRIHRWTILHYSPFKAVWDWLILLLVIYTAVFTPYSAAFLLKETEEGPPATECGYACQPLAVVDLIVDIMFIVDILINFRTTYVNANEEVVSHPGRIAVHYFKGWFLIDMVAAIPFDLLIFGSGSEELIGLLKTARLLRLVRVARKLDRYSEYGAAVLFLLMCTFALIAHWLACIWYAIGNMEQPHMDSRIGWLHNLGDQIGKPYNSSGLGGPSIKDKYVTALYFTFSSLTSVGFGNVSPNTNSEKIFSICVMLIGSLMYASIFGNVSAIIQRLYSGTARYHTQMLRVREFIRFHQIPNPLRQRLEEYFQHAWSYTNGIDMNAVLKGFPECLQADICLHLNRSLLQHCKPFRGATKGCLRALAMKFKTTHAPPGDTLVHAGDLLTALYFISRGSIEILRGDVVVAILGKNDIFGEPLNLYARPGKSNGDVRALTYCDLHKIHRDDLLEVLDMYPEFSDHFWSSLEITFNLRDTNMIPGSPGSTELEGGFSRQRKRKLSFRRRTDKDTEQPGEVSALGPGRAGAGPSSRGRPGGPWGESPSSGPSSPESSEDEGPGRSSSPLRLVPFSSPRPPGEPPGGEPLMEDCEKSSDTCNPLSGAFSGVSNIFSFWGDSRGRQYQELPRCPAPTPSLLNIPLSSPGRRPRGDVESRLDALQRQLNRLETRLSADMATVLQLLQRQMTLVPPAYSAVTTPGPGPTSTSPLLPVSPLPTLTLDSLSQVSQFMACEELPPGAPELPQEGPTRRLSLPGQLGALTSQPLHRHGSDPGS

In data set [1], `Cl.N=C(N)N/N=C/c1ccc(-c2ccc(/C=N/Nc3ccc(F)cc3F)cc2)cc1` [Compound 7Af] yielded an IC50 of 4.4 to 13.9 µg/mL. The “antifungal activity (class)” value in data set [2] is “excellent (excellent (MIC = 0.5-3.9 μg/mL))”. The compound also had an MIC in the data set with E. coli MC1061 above 214 µg/mL. For the same compound, the “affinity for / interaction with hERG (class)” value (shortened to “affinity for / interaction”) on hERG channel was “moderate (IC50 values in the range of 1-10 μM are considered to have moderate affinity)”.

Take `C/C(=N\NC(=N)N)c1ccc(-c2ccc(/C(C)=N/NC(=N)N)cc2)cc1.Cl.Cl` [Compound 4A]: in the data set with E. coli MC1061, the MIC turned out to be 26.5 µg/mL.

In data set [1], `Cl.Cl.N=C(N)N/N=C/c1ccc(-c2cccc(/C=N/NC(=N)N)c2)cc1` [Compound 3B] came in with an IC50 of 4.4 to 13.9 µg/mL. This compound also gave an MIC in the data set on E. coli MC1061 above 198 µg/mL.

For the compound `Cl.N=C(N)N/N=C/c1ccc(-c2ccc(/C=N/Nc3ccccc3Cl)cc2)cc1` [Compound 7Aa], the MIC is above 215 µg/mL against P. aeruginosa ATCC 27853 [3]; above 215 µg/mL against B. subtilis 168; 0.9 µg/mL in data set [6]; above 215 µg/mL in the data set with E. cloacae ATCC 13047; above 215 µg/mL in the data set with K. pneumoniae ATCC 27736; above 215 µg/mL against E. coli MC1061. The results for the MIC in data set [9] and in data set [10] were 0.4 to 0.9 µg/mL and 0.9 µg/mL, respectively. Also, the “development of resistance (passage after which resistance developed)” value (“development of resistance” below) in data set [4] is listed as “did not develop resistance”; in the data set on P. aeruginosa ATCC 27853 [7], “twelve”; in the data set on MRSA, “twelve”; in the data set on VRE it was “did not develop resistance”. In addition, the “intracellular ROS production” value in the data set on C. albicans ATCC 10231 [5] (1× and 2× MIC) is given as “increased intracellular ROS production”. In addition, in the data set with C. albicans ATCC 10231 [8], the “development of drug resistance” value was “did not to develop drug resistance”. The “affinity for / interaction” value on hERG channel is “moderate (IC50 values in the range of 1-10 μM are considered to have moderate affinity)”.

For `Cl.Cl.N=C(N)N/N=C/c1ccc(-c2ccc(/C=N/NC(=N)N)cc2)cc1` [Compound 3A], in the data set with E. coli MC1061, the MIC was above 198 µg/mL.

On to `C[C@@H]1[C@H](O)[C@@H](C)/C=C/C=C/C=C/C=C/C=C/C=C/C=C/[C@H](O[C@@H]2O[C@H](C)[C@@H](O)[C@H](N)[C@@H]2O)C[C@@H]2O[C@](O)(C[C@@H](O)C[C@@H](O)[C@H](O)CC[C@@H](O)C[C@@H](O)CC(=O)O[C@H]1C)C[C@H](O)[C@H]2C(=O)O` [AmB, amphotericin B], for which the MIC is 2 to 3.9 µg/mL (≈ 2.16 to 4.22 µM) against C. albicans ATCC 64124 and 2 µg/mL (≈ 2.16 µM) against C. albicans ATCC 90819.

In turn, `Cl.N#Cc1ccc(N/N=C/c2ccc(-c3ccc(/C=N/NC(=N)N)cc3)cc2)cc1` [Compound 7Ae] came in with an MIC with E. coli MC1061 of 26.1 to 52.2 µg/mL.

Consider `C/C(=N\NC(=N)N)c1ccc(CCc2ccc(/C(C)=N/NC(=N)N)cc2)cc1.Cl.Cl` [Compound 4D], for which the “increase in MIC values” in the data set with P. aeruginosa ATCC 27853 [7] (after 15 serial passages at sub-inhibitory concentrations) stood at 4 fold. In the data set on E. coli MC1061, this compound returned an MIC above 226 µg/mL.

`CC1COc2c(N3CCN(C)CC3)c(F)cc3c(=O)c(C(=O)O)cn1c23` (stereo not shown) [OFX, ofloxacin, reference compound]: the “MIC, range over bacterial strains tested” value in data set [11] is at most 0.5 to 31.3 µM. The MIC against E. coli MC1061 lay within 1.4 to 2.8 µg/mL (≈ 3.87 to 7.75 µM).

As for `C/C(=N\NC(=N)N)c1cccc(/C(C)=N/NC(=N)N)c1.Cl.Cl` [Compound 4H], the MIC in the data set on E. coli MC1061 was above 173 µg/mL.

Turning to `C/C(=N\NC(=N)N)c1ccc(Oc2ccc(/C(C)=N/NC(=N)N)cc2)cc1.Cl.Cl` [Compound 4E], the MIC (against B. subtilis 168; with E. coli MC1061; in [10]) was 54.9 µg/mL throughout.

`Cl.N=C(N)N/N=C/c1ccc(-c2ccc(/C=N/Nc3ccccc3Br)cc2)cc1` [Compound 7Ab] had an MIC in the data set on E. coli MC1061 above 235 µg/mL.

As to `C/C(=N\NC(=N)N)c1ccc2c(c1)Cc1cc(/C(C)=N/NC(=N)N)ccc1-2.Cl.Cl` [Compound 4F], the “development of resistance” value (in data set [4]; with P. aeruginosa ATCC 27853 [7]; with MRSA; in the data set on VRE) was “did not develop resistance” throughout. For the same compound, the “intracellular ROS production” value with C. albicans ATCC 10231 [5] (1× and 2× MIC) is “increased intracellular ROS production”. The MIC with E. cloacae ATCC 13047 and in the data set on E. coli MC1061 was 218 µg/mL each time. Further, in the data set on C. albicans ATCC 10231 [8], the “development of drug resistance” value is “did not to develop drug resistance”. Further, the “affinity for / interaction” value at hERG channel is given as “moderate (IC50 values in the range of 1-10 μM are considered to have moderate affinity)”.

As to `C/C(=N\NC(=N)N)c1ccc(/C(C)=N/NC(=N)N)cc1.Cl.Cl` [Compound 4G], in the data set on E. coli MC1061, the MIC is above 173 µg/mL.

As to `C/C(=N\NC(=N)N)c1ccc(Cc2ccc(/C(C)=N/NC(=N)N)cc2)cc1.Cl.Cl` [Compound 4C], the MIC against E. coli MC1061 was above 219 µg/mL.

In the case of `OO` [Compound H2O2, H2O2, reference compound], the “intracellular ROS production” value in the data set on C. albicans ATCC 10231 [5] (positive control at 1 mM) is “induced ROS production”.

With `NCC[C@H](O)C(=O)N[C@@H]1C[C@H](N)[C@@H](O[C@H]2O[C@H](CN)[C@@H](O)[C@H](O)[C@H]2O)[C@H](O)[C@H]1O[C@H]1O[C@H](CO)[C@@H](O)[C@H](N)[C@H]1O` [AMK, amikacin, reference compound], the “development of resistance” value in data set [4] is on record as 15 passages; with P. aeruginosa ATCC 27853 [7], 5 passages; in the data set with MRSA it was 12 passages; in the data set with VRE, 3 passages. Also, in data set [11], the “MIC, range over bacterial strains tested” value is 3.9 to 125 µM. Also, the MIC was 24.5 µg/mL (≈ 41.8 µM) in the data set with K. pneumoniae ATCC 27736, 24.5 µg/mL (≈ 41.8 µM) against E. coli MC1061, 3 µg/mL (≈ 5.12 µM) in data set [9] and 24.5 µg/mL (≈ 41.8 µM) in [10].

`Cl.N=C(N)N/N=C/c1ccc(-c2ccc(/C=N/Nc3ccc(Cl)cc3Cl)cc2)cc1` [Compound 7Ag] returned an MIC in the data set with E. coli MC1061 above 231 µg/mL.

`Cl.N=C(N)N/N=C/c1ccc(-c2ccc(/C=N/Nc3ccc(Cl)cc3)cc2)cc1` [Compound 7Ad] came in with an IC50 in [1] of 4.4 to 13.9 µg/mL. The compound also gave an MIC in the data set with E. coli MC1061 above 214 µg/mL.

Take `C/C(=N\NC(=N)N)c1ccc(-c2ccc(/C(C)=N/Nc3ccccc3Cl)cc2)cc1.Cl` [Compound 8Aa]: the MIC in the data set on P. aeruginosa ATCC 27853 [3], in the data set with E. cloacae ATCC 13047 and in the data set on E. coli MC1061 was 213 µg/mL in each case.

As for `CC1(C)S[C@@H]2[C@H](NC(=O)[C@H](N)c3ccccc3)C(=O)N2[C@H]1C(=O)O` [AMP, ampicillin, reference compound], the “MIC, range over bacterial strains tested” value in [11] is at least 250 µM. The same compound showed an MIC against E. coli MC1061 above 92.8 µg/mL.

For orientation: IC50 means the concentration that gives 50% inhibition. Higher therefore signals weaker potency in that assay. For orientation: MIC means the lowest concentration found to suppress growth. A high value points to weaker potency.
